The numbers were not newly measured in US20140106026A1, “ARTICLE AND METHOD FOR TREATING, PREVENTING AND AMELIORATING ALCOHOL-INDUCED WERNICKE-KORSAKOFF SYNDROME” (priority 2012, published 2014), which cites them from elsewhere.

Read-outs that look alike come from different tables or passages of the source.

Test in data set [1]: not given
This is another data set of the same source.

Test in data set [2]: not given
This is another data set of the same source.

The conditions of data set [3]: oral intake.

For the molecule `Cc1ncc(C[n+]2csc(CCO)c2C)c(N)n1` [Thiamine], the solubility entry (in acetone, ether, chloroform, and benzene) was “practically insoluble”; the solubility result (in water, methanol, and glycerol) was “soluble”. For the same molecule, the stability result is recorded as “stable” in data set [1] (at acidic pH) and “unstable” in data set [1] (in alkaline solutions). Further, the stability towards sulfite result in data set [1] (sulfite as contained in wine and cordials) is on record as “degrades”. Besides, in data set [2], the “half-life, in vivo” value was “approximately two”. In addition, in data set [3], the “intake above which decline in thiamine absorption occurs” value is on record as “above 5 mg”.
